Measurements taken from PMC12662691, “DDX3X Promotes Rotavirus Infection and Serves as an Antiviral Target” (Transboundary and Emerging Diseases, 2025).

Columns and labels:
[1] = tested on: MYAS33 RV strain; assay: Antiviral efficacy screen, western blot of viral proteins; assay type: cell-based, Rotavirus; conditions: range of drug concentrations
Protocol: (a) Drugs were selected by gene dependent and network dependent strategy based on VP4 interacting proteins. (b) Cells were treated with a range of drug concentrations, and then, infected with MYAS33 RV strain. Subsequently, the cells were collected and subjected to western blot analysis to detect viral proteins.
Cells were collected, washed with PBS, and digested with trypsin. The cells were then collected in PBS into centrifuge tubes. After centrifugation, the supernatant was discarded. The cells was lysed, and the resulting lysate was transferred to a new centrifuge tube. 5 × SDS-PAGE sample buffer was added, and the samples were boiled in a water bath. Subsequently, SDS-PAGE was performed, and the proteins were transferred onto nitrocellulose membranes. The membranes were blocked with 5% skim milk at room temperature, washed three times with TBST, and incubated overnight at 4°C with primary antibodies. After washing three times with TBST, corresponding secondary antibodies were added and incubated for 1 h at room temperature. Following three additional washes with TBST, ECL reagent was prepared and applied to the membrane. Finally, the membrane was exposed in a chemiluminescence imaging system.

[2] = tested on: MYAS33 RV strain; assay: EC50 determination of anti-RV activity by RT-qPCR, MYAS33 strain; assay type: cell-based; conditions: Rotavirus, 0.1 MOI, 24 h, read-out: EC50 against RV infection
Protocol: (§1) Cells were seeded into 96-well plates, allowed to adhere, followed by drug inoculation in a concentration gradient along with RV infection at 0.1 MOI. After 24 h, cells were collected, total RNA was extracted, reverse transcription was performed, and RV was detected by RT-qPCR. The EC50 of the drug was calculated.

[3] = tested on: MYAS33 RV strain; assay: RK-33 viral titer by TCID50; assay type: cell-based, Rotavirus
Protocol: (§2) Figure 7 RK-33 inhibits RV infection. (a, b) Cells were incubated with 10 μM RK-33 and infected with MYAS33 RV strain. The viral detection was conducted at 3, 6, 12, and 24 hpi by RT-qPCR detection, and at 12 and 24 hpi by TCID50. (c, d) EC50 of RK-33 against MSLH14 and SA11 strains was measured. (e) Flowchart of in vivo drug experiment. (f) Weight gain rate of mice. (g) Intestinal virus titer detection in mice. (h) H&E staining of intestine. (i–l) Cytokine detection of spleen. Statistical significance is determined by Student's test (^∗p < 0.05; ^∗∗p < 0.01; ^∗∗∗p < 0.001; ^∗∗∗∗p < 0.0001). HD, high dose; LD, low dose; ns, not significant. […] The name RK-33 is printed only in the plot legends of panels a and b.

[4] = tested on: MSLH14 RV strain; assay: EC50 determination of anti-RV activity by RT-qPCR, MSLH14 strain; assay type: cell-based, Rotavirus
Protocol: as §1

[5] = tested on: MYAS33 RV strain; assay: RK-33 time course of RV infection, RT-qPCR; assay type: cell-based, Rotavirus
Protocol: as §2
Total RNA was extracted from collected samples using TRIzol reagent (Sangon Biotech) and subsequently reverse transcribed into cDNA using a premix reverse transcriptase (Vazyme). For qPCR analysis, a SYBR Green qPCR Mix kit (Promega) was utilized in combination with a CFX96 system. All procedures were carried out following the manufacturers' guidelines as described previously.

[6] = tested on: MSLH14 RV strain; assay: In vivo drug experiment in RV-challenged neonatal mice; conditions: neonatal Kunming mice
Protocol: Pregnant Kunming mice were individually housed and bred until delivery. Neonatal mice were raised for 1 week. Mice were inoculated with 10^4 TCID50 units of the MSLH14 RV strain via gavage. Drug administration was performed with 0.005 mg/g (low dose group) or 0.01 mg/g (high dose group). The drugs were dissolved in a solvent formulated as follows: 10% DMSO, 40% PEG300, 5% Tween-80, and 45% normal saline. Viral titers in the small intestine were determined using the TCID50 method. Spleens were collected for total RNA extraction, followed by reverse transcription and cytokine detection. For histopathological examination, tissues were fixed with 4% paraformaldehyde, paraffin embedded, sectioned into slices, and stained with hematoxylin and eosin following standard protocols as previously described.

[7] = tested on: SA11 RV strain; assay: EC50 determination of anti-RV activity by RT-qPCR, SA11 strain; assay type: cell-based, Rotavirus
Protocol: as §1

[8] = MSLH14, spleen, RT-qPCR, vs untreated controls

For Cc1[nH]c2ccccc2c1CCNC(=O)c1cccs1 [CK-636], which “Inhibitory effect against RV infection (antiviral efficacy screen)” value [1] is on record?
Its value is “exhibited inhibitory effects”.

What about the EC50 [2] of the same compound?
The EC50 was 5.3 µM.

What does the source list for CC(COc1ccccc1Cc1ccccc1)N1CCCCC1 (centres unmarked) [benproperine phosphate]?
Inhibitory effect against RV infection (antiviral efficacy screen) [1]: exhibited inhibitory effects; EC50 [2]: 4.69 µM

What does the source list for COc1ccc(Cn2c3ncnc4c(ncn4Cc4ccc(OC)cc4)c-3nc2=O)cc1 [RK-33]?
Inhibitory effect against RV infection (antiviral efficacy screen) [1]: exhibited inhibitory effects; Viral titer (TCID50) ([3]; 10 μM RK-33, MYAS33, 12 h): inhibited MYAS33 strain infection; Viral titer (TCID50) ([3]; 10 μM RK-33, MYAS33, 24 h): inhibited MYAS33 strain infection; EC50 [2]: 1.05 µM; Inhibition of MSLH14 infection [4]: also inhibits SA11 and MSLH14 infections; EC50 ([4]; Rotavirus, 0.1 MOI, 24 h, RT-qPCR, read-out: EC50 against MSLH14): 0.91 µM; Inhibitory effect on RV (RT-qPCR) ([5]; 10 μM RK-33, MYAS33, 3 hpi): no significant inhibitory effect; Inhibitory effect on RV (RT-qPCR) ([5]; 10 μM RK-33, MYAS33, 6 hpi): pronounced antiviral activity; Inhibitory effect on RV (RT-qPCR) ([5]; 10 μM RK-33, MYAS33, 12 hpi): pronounced antiviral activity; Inhibitory effect on RV (RT-qPCR) ([5]; 10 μM RK-33, MYAS33, 24 hpi): pronounced antiviral activity; Intestinal lesions (H&E histopathology) ([6]; MSLH14, 5 days postinfection): alleviated intestinal lesions; Spleen IFNG level [6, 8]: significantly reduced levels; Spleen IL-1B level [6, 8]: significantly reduced levels; Spleen IL-6 level [6, 8]: significantly reduced levels; Spleen TNFA level [6, 8]: significantly reduced levels; Recovery of body weight (weight gain rate) ([6]; MSLH14 by gavage, 0.005 mg/g (low dose) or 0.01 mg/g (high dose), vs untreated controls): faster recovery of body weight; Intestinal viral titer (TCID50) ([6]; MSLH14 by gavage, 0.005 or 0.01 mg/g, small intestine, vs untreated controls): significantly reduced; Inhibition of SA11 infection [7]: also inhibits SA11 and MSLH14 infections; EC50 ([7]; Rotavirus, 0.1 MOI, 24 h, RT-qPCR, read-out: EC50 against SA11): 0.86 µM

What does the source list for COCCCC/C(=N\OCCN)c1ccc(C(F)(F)F)cc1 [fluvoxamine]?
Inhibitory effect against RV infection (antiviral efficacy screen) [1]: exhibited inhibitory effects; EC50 [2]: 14.8 µM

How did the “Inhibitory effect against RV infection (antiviral efficacy screen)” value [1] turn out when Clc1cccc(N2CCN(c3cnnc4c(Cl)cccc34)CC2)c1 [FiVe 1] was run?
Its value is “exhibited inhibitory effects”.

And the EC50 [2]?
The EC50 was 3.99 µM.

What does the source list for Cc1[nH]c2ccccc2c1CCNC(=O)c1ccccc1F [CK-666]?
Inhibitory effect against RV infection (antiviral efficacy screen) [1]: exhibited inhibitory effects; EC50 [2]: 2.85 µM
